Assay type in all cases: cell-based
The target in experiment [1] is T1, human glucagon receptor (GCGR) (Homo sapiens, UniProt P47871).
T1 construct: expressed in transfected cells
The experiment can be described thus: cAMP assay, human GCGR cells. The settings on record: cAMP assay. The gist of the method: (§1)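 Peptide-stimulated cAMP measured by two-step HTRF after a 30 min room-temperature incubation with receptor-expressing cells (hGLP-1R, hGIPR at 1×10^5 cells/ml; hGCGR at 2×10^5 cells/ml). Duplicate dilutions; EC50 from 4-parameter logistic fit of % Delta F.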
Background: Cyclic AMP is a second messenger, typically raised through Gs and lowered through Gi signalling.

Experiment [2] concerns the target T2, human GLP-1 receptor (GLP-1R) (Homo sapiens, UniProt P43220).
T2 construct: expressed in transfected cells
Put plainly: cAMP assay, human GLP-1R cells. Summed up: as §1

Another experiment concerns the target T3, GLP-1R (INS1e assay) (Rattus norvegicus, UniProt P32301).
T3 construct: endogenous in cells; host or cells: INS-1E cells
T3 sequence (P32301 22-463): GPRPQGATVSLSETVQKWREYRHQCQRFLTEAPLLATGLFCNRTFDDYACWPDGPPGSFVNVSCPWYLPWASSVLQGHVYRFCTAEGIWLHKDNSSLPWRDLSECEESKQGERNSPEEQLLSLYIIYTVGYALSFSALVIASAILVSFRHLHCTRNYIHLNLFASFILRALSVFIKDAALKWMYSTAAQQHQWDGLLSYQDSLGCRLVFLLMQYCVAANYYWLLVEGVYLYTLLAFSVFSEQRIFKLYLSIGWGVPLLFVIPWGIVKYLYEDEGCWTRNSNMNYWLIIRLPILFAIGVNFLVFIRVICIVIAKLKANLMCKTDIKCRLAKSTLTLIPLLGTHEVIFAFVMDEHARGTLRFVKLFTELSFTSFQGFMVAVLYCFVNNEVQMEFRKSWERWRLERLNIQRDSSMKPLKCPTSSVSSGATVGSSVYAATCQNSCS
The experiment can be described thus: INS1e assay, cAMP activity at GLP-1R. Conditions: mono-lipidated peptides. The gist of the method: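 It pairs cAMP-d2 acceptor with anti-cAMP cryptate donor, both prepared 1/20 in conjugate/lysis buffer, applied as a two-step protocol.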

For experiment [3], the target named is T4, human glucose-dependent insulinotropic peptide receptor (GIPR) (Homo sapiens, UniProt P48546).
T4 construct: expressed in transfected cells
T4 sequence (P48546 22-466): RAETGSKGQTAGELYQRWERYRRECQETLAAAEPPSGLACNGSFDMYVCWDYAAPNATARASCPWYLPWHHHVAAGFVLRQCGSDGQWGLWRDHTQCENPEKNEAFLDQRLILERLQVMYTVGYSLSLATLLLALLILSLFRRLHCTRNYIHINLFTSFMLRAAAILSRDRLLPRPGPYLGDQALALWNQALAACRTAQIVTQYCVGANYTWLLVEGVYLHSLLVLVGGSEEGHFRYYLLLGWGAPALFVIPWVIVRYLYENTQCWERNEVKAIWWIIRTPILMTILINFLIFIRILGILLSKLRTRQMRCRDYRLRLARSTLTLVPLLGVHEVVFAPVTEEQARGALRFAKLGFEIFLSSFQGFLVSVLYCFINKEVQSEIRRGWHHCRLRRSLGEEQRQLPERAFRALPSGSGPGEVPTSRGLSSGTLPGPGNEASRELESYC
Put plainly: cAMP assay, human GIPR cells. Conditions: cAMP assay. Summed up:
as §1

Where [4] appears, read: first determination (n1), read-out: Primary assay EC50 Gluc-R (n1).
[5] abbreviates: second determination (n2), read-out: Primary assay EC50 Gluc-R (n2).
The mark [6] stands for this setting: cAMP assay, first determination (n1), read-out: Primary assay EC50 GLP-1R n1.
[7] abbreviates: cAMP assay, second determination (n2), read-out: Primary assay EC50 GLP-1R n2.
[8] abbreviates: mean of n1 and n2, read-out: Mean pM GLP-1R.
The mark [9] stands for this setting: mean of n1 and n2, read-out: INS1e assay EC50 Mean pM GLP-1R.
Setting [10] is: replicate n1, read-out: INS1e assay EC50 GLP-1R n1.
[11] abbreviates: replicate n2, read-out: INS1e assay EC50 GLP-1R n2.
Where [12] appears, read: first determination (n1), read-out: Primary assay EC50 GIP-R (n1).
Setting [13] is: second determination (n2), read-out: Primary assay EC50 GIP-R (n2).

Where two headings read alike, the source gives them in different places. Numbered stars: 1 amine (or outer) side, 2 acyl side, 3 side chain; on linkers, the order of the positions; unused ones are H or OH. Square brackets hold non-standard residues; d marks the D form. Side chains are listed from the residue outwards. Peptide text beside a SMILES is read from it. * marks the point of attachment. C18 diacid = O=C(O)CCCCCCCCCCCCCCCCC(=O)*; γGlu = O=C(O)[C@H](CCC(=O)[*:2])N[*:1]; Stearoyl = CCCCCCCCCCCCCCCCCC(=O)*; αMeF = C[C@](N)(Cc1ccccc1)C(=O)O; αMeK = C[C@](N)(CCCCN)C(=O)O; αMeS = C[C@](N)(CO)C(=O)O; AEEA = NCCOCCOCC(=O)O; Aib = CC(C)(N)C(=O)O Some results are limits rather than exact numbers.

T1 sequence (P47871 26-477): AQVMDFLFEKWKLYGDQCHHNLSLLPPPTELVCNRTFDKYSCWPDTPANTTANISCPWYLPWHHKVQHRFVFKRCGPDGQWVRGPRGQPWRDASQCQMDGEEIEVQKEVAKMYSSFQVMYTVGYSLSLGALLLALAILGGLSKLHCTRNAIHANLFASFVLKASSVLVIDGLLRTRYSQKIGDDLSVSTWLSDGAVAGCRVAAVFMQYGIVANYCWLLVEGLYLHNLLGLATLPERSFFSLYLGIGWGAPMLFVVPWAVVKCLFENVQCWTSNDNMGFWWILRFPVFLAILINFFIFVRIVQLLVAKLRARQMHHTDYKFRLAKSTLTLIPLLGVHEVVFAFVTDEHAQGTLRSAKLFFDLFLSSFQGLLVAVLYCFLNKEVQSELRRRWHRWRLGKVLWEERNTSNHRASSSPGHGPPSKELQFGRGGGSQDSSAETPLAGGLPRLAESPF
T2 sequence (P43220 24-463): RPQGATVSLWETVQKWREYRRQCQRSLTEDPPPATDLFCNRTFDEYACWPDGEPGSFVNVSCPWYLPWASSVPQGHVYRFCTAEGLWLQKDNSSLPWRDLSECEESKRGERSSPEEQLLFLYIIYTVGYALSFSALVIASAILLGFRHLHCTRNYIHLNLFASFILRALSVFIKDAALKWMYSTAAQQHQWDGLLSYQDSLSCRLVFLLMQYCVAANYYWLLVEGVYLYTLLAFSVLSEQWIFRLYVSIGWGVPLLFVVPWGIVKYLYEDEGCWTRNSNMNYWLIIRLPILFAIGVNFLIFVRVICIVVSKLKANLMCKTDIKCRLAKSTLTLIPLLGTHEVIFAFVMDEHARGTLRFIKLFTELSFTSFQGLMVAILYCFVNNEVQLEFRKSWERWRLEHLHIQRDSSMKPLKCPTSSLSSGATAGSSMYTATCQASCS

With `CCCCCCCCCCCCCCCCCC(=O)NCCOCCOCC(=O)NCCOCCOCC(=O)NCCOCCOCC(=O)NCCCC[C@H](NC(=O)[C@H](C)NC(=O)[C@H](C)NC(=O)[C@H](CCC(=O)O)NC(=O)CNC(=O)[C@H](CCC(=O)O)NC(=O)[C@H](CC(C)C)NC(=O)[C@](C)(Cc1ccccc1)NC(=O)[C@H](CO)NC(=O)[C@](C)(CO)NC(=O)[C@@H](NC(=O)[C@H](CC(=O)O)NC(=O)[C@H](CO)NC(=O)[C@@H](NC(=O)[C@](C)(Cc1ccccc1)NC(=O)[C@H](CO)NC(=O)CNC(=O)[C@H](CCC(=O)O)NC(=O)C(C)(C)NC(=O)[C@@H](N)Cc1c[nH]cn1)[C@@H](C)O)C(C)C)C(=O)N[C@@H](CCC(=O)O)C(=O)N[C@@](C)(Cc1ccccc1)C(=O)N[C@H](C(=O)N[C@@H](C)C(=O)N[C@@H](Cc1c[nH]c2ccccc12)C(=O)N[C@H](C(=O)N[C@H](C(=O)N[C@@](C)(CCCCN)C(=O)NCC(=O)NCC(N)=O)C(C)C)C(C)C)[C@@H](C)CC` [compound 55] (H-H[Aib]EGS[αMeF]TSDV[αMeS]S[αMeF]LEGEAAK([AEEA-AEEA-AEEA-Stearoyl])E[αMeF]IAWVV[αMeK]GG-NH2), the EC50 is ≥ 25 nM in experiment [1] (setting [4]); ≥ 25 nM in experiment [1] (setting [5]); 1.4 pM in experiment [2] (setting [6]); 2.3 pM in experiment [2] (setting [7]); 1.8 pM in experiment [2] (setting [8]); 11 pM on GLP-1R (INS1e assay) (setting [9]). In addition, the EC50 at GLP-1R (INS1e assay) (setting [10]) is 12.5 pM; at GLP-1R (INS1e assay) (setting [11]) it was 10.1 pM; in experiment [3] (setting [12]), ≥ 25 nM; in experiment [3] (setting [13]) it was ≥ 25 nM.

Regarding `CCCCCCCCCCCC(=O)NCCOCCOCC(=O)NCCCC[C@H](NC(=O)[C@H](C)NC(=O)[C@H](C)NC(=O)[C@H](CCC(=O)O)NC(=O)CNC(=O)[C@H](CCC(=O)O)NC(=O)[C@H](CC(C)C)NC(=O)[C@](C)(Cc1ccccc1)NC(=O)[C@H](CO)NC(=O)[C@](C)(CO)NC(=O)[C@@H](NC(=O)[C@H](CC(=O)O)NC(=O)[C@H](CO)NC(=O)[C@@H](NC(=O)[C@](C)(Cc1ccccc1)NC(=O)[C@H](CO)NC(=O)CNC(=O)[C@H](CCC(=O)O)NC(=O)C(C)(C)NC(=O)[C@@H](N)Cc1c[nH]cn1)[C@@H](C)O)C(C)C)C(=O)N[C@@H](CCC(=O)O)C(=O)N[C@@](C)(Cc1ccccc1)C(=O)N[C@H](C(=O)N[C@@H](C)C(=O)N[C@@](C)(Cc1ccccc1)C(=O)N[C@H](C(=O)N[C@H](C(=O)N[C@@](C)(CCCCN)C(=O)NCC(=O)NCC(N)=O)C(C)C)C(C)C)[C@@H](C)CC` [compound 134], the EC50 in experiment [1] (setting [4]) was ≥ 28 nM; in experiment [1] (setting [5]), ≥ 28 nM; in experiment [2] (setting [6]), 7 pM; in experiment [2] (setting [7]), 4.9 pM; in experiment [2] (setting [8]), 6 pM; at GLP-1R (INS1e assay) (setting [9]) it was 123 pM. The EC50 at GLP-1R (INS1e assay) (setting [10]) is 168 pM; on GLP-1R (INS1e assay) (setting [11]) it was 77.6 pM; in experiment [3] (setting [12]) it was ≥ 28 nM; in experiment [3] (setting [13]) it was ≥ 28 nM.

`CC[C@H](C)[C@H](NC(=O)[C@](C)(Cc1ccccc1)NC(=O)[C@H](CCC(=O)O)NC(=O)[C@](C)(CCCCN)NC(=O)[C@H](C)NC(=O)[C@H](C)NC(=O)[C@H](CCC(=O)O)NC(=O)CNC(=O)[C@H](CCC(=O)O)NC(=O)[C@H](CC(C)C)NC(=O)[C@](C)(Cc1ccccc1)NC(=O)[C@H](CO)NC(=O)[C@](C)(CO)NC(=O)[C@@H](NC(=O)[C@H](CC(=O)O)NC(=O)[C@H](CO)NC(=O)[C@@H](NC(=O)[C@](C)(Cc1ccccc1)NC(=O)[C@H](CO)NC(=O)CNC(=O)[C@H](CCC(=O)O)NC(=O)C(C)(C)NC(=O)[C@@H](N)Cc1c[nH]cn1)[C@@H](C)O)C(C)C)C(=O)N[C@@H](C)C(=O)N[C@@](C)(Cc1ccccc1)C(=O)N[C@H](C(=O)N[C@H](C(=O)N[C@@](C)(CCCCN)C(=O)N[C@@H](CCCCNC(=O)COCCOCCNC(=O)COCCOCCNC(=O)CC[C@H](NC(=O)CCCCCCCCCCCCCCCCC(=O)O)C(=O)O)C(=O)NCC(N)=O)C(C)C)C(C)C` [compound 100] (H-H[Aib]EGS[αMeF]TSDV[αMeS]S[αMeF]LEGEAA[αMeK]E[αMeF]IA[αMeF]VV[αMeK]K([AEEA-AEEA-γGlu-C18 diacid])G-NH2): the EC50 in experiment [1] (setting [4]) was ≥ 25 nM; in experiment [1] (setting [5]), ≥ 24.9 nM; in experiment [2] (setting [6]) it was 16 pM; at GLP-1R (INS1e assay) (setting [9]), 822 pM; at GLP-1R (INS1e assay) (setting [10]), 233 pM; at GLP-1R (INS1e assay) (setting [11]), 1410 pM. In addition, the EC50 is ≥ 25 nM in experiment [3] (setting [12]) and ≥ 24.9 nM in experiment [3] (setting [13]).

The record behind these values is patent US10414811B2, “Protease-resistant lipidated GLP-1 analogs” (MEDIMMUNE LIMITED, priority 2015, dated 2019).
